± gives the expanded uncertainty stated by the source.
Columns and labels:
[1] = mn = molality of the nth substance listed, in mol/kg; conditions: 100 kPa, Liquid; for speed of sound: Linear variable-path acoustic interferometer; for mass density: Pycnometric method
[2] = refractive index (Na D-line) (dimensionless); mn = molality of the nth substance listed, in mol/kg; conditions: 100 kPa, Liquid, Standard Abbe refractometry

Question: Which speed of sound ([1]; 293.15 K, m1 = 0.05) does the source give for `CC1NC(=O)C(C)NC1=O` (stereo not given) [3,6-dimethyl-2,5-piperazinedione] + O here?
Answer: 1499.7 ± 1.8 m/s

Question: And the mass density ([1]; 293.15 K, m1 = 0.05)?
Answer: 999.9 ± 0.38 kg/m3

Question: And the speed of sound ([1]; 298.15 K, m1 = 0.05)?
Answer: 1509.5 ± 1.8 m/s

Question: What about the mass density ([1]; 298.15 K, m1 = 0.05) of the same molecule?
Answer: 998.82 ± 0.39 kg/m3

Question: What about the speed of sound ([1]; 303.15 K, m1 = 0.05) of the same molecule?
Answer: 1521.1 ± 1.8 m/s

Question: And the mass density ([1]; 303.15 K, m1 = 0.05)?
Answer: 997.48 ± 0.4 kg/m3

Question: And the speed of sound ([1]; 308.15 K, m1 = 0.05)?
Answer: 1527.9 ± 1.8 m/s

Question: And the mass density ([1]; 308.15 K, m1 = 0.05)?
Answer: 996.18 ± 0.41 kg/m3

Question: What about the speed of sound ([1]; 313.15 K, m1 = 0.05) of the same molecule?
Answer: 1535.9 ± 1.8 m/s

Question: And the mass density ([1]; 313.15 K, m1 = 0.05)?
Answer: 994.84 ± 0.43 kg/m3

Question: What about the refractive index ([2]; 293.15 K, m1 = 0.05) of the same molecule?
Answer: 1.3351 ± 0.0005

Question: What about the refractive index ([2]; 298.15 K, m1 = 0.05) of the same molecule?
Answer: 1.3344 ± 0.0005

Question: And the refractive index ([2]; 303.15 K, m1 = 0.05)?
Answer: 1.3337 ± 0.0005

Question: What about the refractive index ([2]; 308.15 K, m1 = 0.05) of the same molecule?
Answer: 1.3331 ± 0.0005

Question: What about the refractive index ([2]; 313.15 K, m1 = 0.05) of the same molecule?
Answer: 1.3324 ± 0.0005

Question: Which speed of sound ([1]; 293.15 K, m1 = 0.1) does the source give for `[Cl][Co][Cl]` [cobalt chloride] + O here?
Answer: 1502.5 ± 1.8 m/s

Question: What about the mass density ([1]; 293.15 K, m1 = 0.1) of the same molecule?
Answer: 1014 ± 0.39 kg/m3

Question: What about the speed of sound ([1]; 298.15 K, m1 = 0.1) of the same molecule?
Answer: 1512 ± 1.8 m/s

Question: What about the mass density ([1]; 298.15 K, m1 = 0.1) of the same molecule?
Answer: 1013 ± 0.4 kg/m3

Question: What about the speed of sound ([1]; 303.15 K, m1 = 0.1) of the same molecule?
Answer: 1524 ± 1.8 m/s

Question: And the mass density ([1]; 303.15 K, m1 = 0.1)?
Answer: 1011.84 ± 0.41 kg/m3

Question: What about the speed of sound ([1]; 308.15 K, m1 = 0.1) of the same molecule?
Answer: 1533.9 ± 1.8 m/s

Question: And the mass density ([1]; 308.15 K, m1 = 0.1)?
Answer: 1010.16 ± 0.42 kg/m3

Question: What about the speed of sound ([1]; 313.15 K, m1 = 0.1) of the same molecule?
Answer: 1541.7 ± 1.8 m/s

Question: And the mass density ([1]; 313.15 K, m1 = 0.1)?
Answer: 1007.89 ± 0.43 kg/m3

Question: What about the refractive index ([2]; 293.15 K, m1 = 0.1) of the same molecule?
Answer: 1.3373 ± 0.0005

Question: What about the refractive index ([2]; 298.15 K, m1 = 0.1) of the same molecule?
Answer: 1.3368 ± 0.0005

Question: What about the refractive index ([2]; 303.15 K, m1 = 0.1) of the same molecule?
Answer: 1.3361 ± 0.0005

Question: What about the refractive index ([2]; 308.15 K, m1 = 0.1) of the same molecule?
Answer: 1.3356 ± 0.0005

Question: What about the refractive index ([2]; 313.15 K, m1 = 0.1) of the same molecule?
Answer: 1.335 ± 0.0005
